# In patent EP4806435A1, “DIHYDROCHROMENE-DERIVATIVE-CONTAINING THERAPEUTIC AGENT FOR CANCER” (Sumitomo Pharma Co., Ltd., priority 2023, dated 2025):
# Like-named read-outs stand apart in the source and are kept apart here.
# Test: Phase 1 clinical trial: plasma pharmacokinetics
# Format: in vivo, human
# Conditions: human, plasma, oral; for half-life: read-out: Effective T1/2 (converted); for AUC: tau = 24 hours
# Protocol: Summary statistics based on preliminary data were obtained for the pharmacokinetics of Compound 1 in patients receiving once-daily doses ranging from 20 mg to 240 mg (Table 5). The mean plasma concentration-time curves of Compound 1 in the once-daily dose groups ranging from 20 mg to 240 mg are shown in Figure 11. In this study, one cycle consists of 28 days, and Cycle 1 Day 1 refers to Day 1 of the first cycle. […] Accumulation was observed after repeated administration. […] Based on these accumulation ratios, the half-life of Compound 1 was estimated to be approximately 4 days. Based on the currently available data, plasma concentrations are considered to have reached steady state by Day 15.
# Summary statistics based on preliminary data were obtained for the pharmacokinetics of Compound 1 in patients in the 20 mg QD, 40 mg QD, 80 mg QD, 120 mg QD, 180 mg QD, 240 mg QD, 360 mg QD, and 480 mg daily (240 mg BID) dose groups (Table 6). The mean plasma concentration-time curves of Compound 1 in the 20 mg QD to 480 mg daily (240 mg BID) dose groups are shown in Figure 12 (in Figure 12, Compound 1 is denoted as "DSP-0390"). In this study, one cycle consists of 28 days, and Cycle 1 Day 1 refers to Day 1 of the first cycle. […] The median Tmax ranged from 2 to 8 hours. Accumulation was observed after repeated administration, and assuming linearity based on the observed accumulation ratios, the estimated elimination half-life was considered to be on the order of several days (approximately 1 to 6 days) (data cut-off: March 2024).
smiles,measurement,setting,value
"CC1(C)Oc2cc(Cl)ccc2[C@@H]2OCC3(CCN(CCn4ccnc4)CC3)C[C@H]21 [Compound 1, (4'aR,10'bR)-8'-chloro-1-[2-(1H-imidazol-1-yl)ethyl]-5',5'-dimethyl-4'a,10'b-dihydro-2'H,4'H,5'H-spiro[piperidine-4,3'-pyrano[3,2-c][1]benzopyran] diphosphate]",Cmax,"80 mg, Cycle 2 Day 1, 80 mg, QD, cut-off April 2023, read-out: Cmax (median)",61 ng/mL
same,Tmax,"80 mg, Cycle 2 Day 1, 80 mg, QD, cut-off April 2023, read-out: Tmax (mean)",8 h
same,Tmax,"80 mg, Cycle 2 Day 1, 80 mg, QD, cut-off April 2023, read-out: Tmax (median)",8 h
same,half-life,"120 mg, 120 mg QD, cut-off March 2024",67.2 h
same,Cmax,"120 mg, Cycle 1, Day 1, 120 mg QD, cut-off March 2024, read-out: Cmax",44.2 ng/mL
same,Tmax,"120 mg, Cycle 1, Day 1, 120 mg QD, cut-off March 2024, read-out: Tmax [a] median value",4 h
same,AUC,"120 mg, Cycle 1, Day 1, 120 mg QD, cut-off March 2024, read-out: AUCtau [b]",577 ng·h/mL
same,AUC(0-t),"120 mg, Cycle 1 Day 1, 120 mg, QD, cut-off April 2023, read-out: AUC0-24 (geometric mean)",544 ng·h/mL
same,AUC(0-t),"120 mg, Cycle 1 Day 1, 120 mg, QD, cut-off April 2023, read-out: AUC0-24 (mean)",583 ng·h/mL
same,AUC(0-t),"120 mg, Cycle 1 Day 1, 120 mg, QD, cut-off April 2023, read-out: AUC0-24 (median)",605 ng·h/mL
same,Cmax,"120 mg, Cycle 1 Day 1, 120 mg, QD, cut-off April 2023, read-out: Cmax (geometric mean)",40 ng/mL
same,Cmax,"120 mg, Cycle 1 Day 1, 120 mg, QD, cut-off April 2023, read-out: Cmax (mean)",44 ng/mL
same,Cmax,"120 mg, Cycle 1 Day 1, 120 mg, QD, cut-off April 2023, read-out: Cmax (median)",45 ng/mL
same,Tmax,"120 mg, Cycle 1 Day 1, 120 mg, QD, cut-off April 2023, read-out: Tmax (mean)",4 h
same,Tmax,"120 mg, Cycle 1 Day 1, 120 mg, QD, cut-off April 2023, read-out: Tmax (median)",4 h
same,Cmax,"120 mg, Cycle 2, Day 1, 120 mg QD, cut-off March 2024, read-out: Cmax,ss",156 ng/mL
same,Tmax,"120 mg, Cycle 2, Day 1, 120 mg QD, cut-off March 2024, read-out: Tmax,ss [a] median value",5 h
same,AUC,"120 mg, Cycle 2, Day 1, 120 mg QD, cut-off March 2024, read-out: AUCtau,ss [b]",2610 ng·h/mL
same,AUC(0-t),"120 mg, Cycle 2 Day 1, 120 mg, QD, cut-off April 2023, read-out: AUC0-24 (geometric mean)",2420 ng·h/mL
same,AUC(0-t),"120 mg, Cycle 2 Day 1, 120 mg, QD, cut-off April 2023, read-out: AUC0-24 (mean)",2630 ng·h/mL
same,AUC(0-t),"120 mg, Cycle 2 Day 1, 120 mg, QD, cut-off April 2023, read-out: AUC0-24 (median)",2330 ng·h/mL
same,Cmax,"120 mg, Cycle 2 Day 1, 120 mg, QD, cut-off April 2023, read-out: Cmax (geometric mean)",140 ng/mL
same,Cmax,"120 mg, Cycle 2 Day 1, 120 mg, QD, cut-off April 2023, read-out: Cmax (mean)",156 ng/mL
same,Cmax,"120 mg, Cycle 2 Day 1, 120 mg, QD, cut-off April 2023, read-out: Cmax (median)",138 ng/mL
same,Tmax,"120 mg, Cycle 2 Day 1, 120 mg, QD, cut-off April 2023, read-out: Tmax (mean)",6 h
same,Tmax,"120 mg, Cycle 2 Day 1, 120 mg, QD, cut-off April 2023, read-out: Tmax (median)",5 h
same,half-life,"180 mg, 180 mg QD, cut-off March 2024",50.4 h
same,Cmax,"180 mg, Cycle 1, Day 1, 180 mg QD, cut-off March 2024, read-out: Cmax",114 ng/mL
same,Tmax,"180 mg, Cycle 1, Day 1, 180 mg QD, cut-off March 2024, read-out: Tmax [a] median value",6 h
same,AUC,"180 mg, Cycle 1, Day 1, 180 mg QD, cut-off March 2024, read-out: AUCtau [b]",1370 ng·h/mL
same,AUC(0-t),"180 mg, Cycle 1 Day 1, 180 mg, QD, cut-off April 2023, read-out: AUC0-24 (geometric mean)",1060 ng·h/mL
same,AUC(0-t),"180 mg, Cycle 1 Day 1, 180 mg, QD, cut-off April 2023, read-out: AUC0-24 (mean)",1420 ng·h/mL
same,AUC(0-t),"180 mg, Cycle 1 Day 1, 180 mg, QD, cut-off April 2023, read-out: AUC0-24 (median)",1840 ng·h/mL
same,Cmax,"180 mg, Cycle 1 Day 1, 180 mg, QD, cut-off April 2023, read-out: Cmax (geometric mean)",73 ng/mL
same,Cmax,"180 mg, Cycle 1 Day 1, 180 mg, QD, cut-off April 2023, read-out: Cmax (mean)",101 ng/mL
same,Cmax,"180 mg, Cycle 1 Day 1, 180 mg, QD, cut-off April 2023, read-out: Cmax (median)",140 ng/mL
same,Tmax,"180 mg, Cycle 1 Day 1, 180 mg, QD, cut-off April 2023, read-out: Tmax (mean)",11 h
same,Tmax,"180 mg, Cycle 1 Day 1, 180 mg, QD, cut-off April 2023, read-out: Tmax (median)",6 h
same,Cmax,"180 mg, Cycle 2, Day 1, 180 mg QD, cut-off March 2024, read-out: Cmax,ss",215 ng/mL
same,Tmax,"180 mg, Cycle 2, Day 1, 180 mg QD, cut-off March 2024, read-out: Tmax,ss [a] median value",6 h
same,AUC,"180 mg, Cycle 2, Day 1, 180 mg QD, n=3, cut-off March 2024, read-out: AUCtau,ss [b]",4860 ng·h/mL
same,AUC(0-t),"180 mg, Cycle 2 Day 1, 180 mg, QD, N=1, cut-off April 2023, read-out: AUC0-24 (geometric mean)",7260 ng·h/mL
same,AUC(0-t),"180 mg, Cycle 2 Day 1, 180 mg, QD, N=1, cut-off April 2023, read-out: AUC0-24 (mean)",7260 ng·h/mL
same,AUC(0-t),"180 mg, Cycle 2 Day 1, 180 mg, QD, N=1, cut-off April 2023, read-out: AUC0-24 (median)",7260 ng·h/mL
same,Cmax,"180 mg, Cycle 2 Day 1, 180 mg, QD, cut-off April 2023, read-out: Cmax (geometric mean)",281 ng/mL
same,Cmax,"180 mg, Cycle 2 Day 1, 180 mg, QD, cut-off April 2023, read-out: Cmax (mean)",287 ng/mL
same,Cmax,"180 mg, Cycle 2 Day 1, 180 mg, QD, cut-off April 2023, read-out: Cmax (median)",287 ng/mL
same,Tmax,"180 mg, Cycle 2 Day 1, 180 mg, QD, cut-off April 2023, read-out: Tmax (mean)",7 h
